Patent US8088791B2, “Antibacterial agents” (Biots Scientific Management Pty Ltd, priority 2006, dated 2012)
≈ marks a conversion by molar mass, not a printed value. Where two headings read alike, the source gives them in different places.

Experiments:
Format in all cases: cell-based
[1] = tested on: various bacterial species; assay: Minimum Inhibitory Concentration (MIC) testing, broth microdilution, other bacterial species
Protocol: Compounds of this invention were tested for antimicrobial activity by susceptibility testing in liquid media. MICs for compounds against each strain were determined by a broth microdilution method according to the National Committee for Clinical Laboratory Standards (NCCLS) guidelines. (NCCLS. 2000. Methods for dilution antimicrobial susceptibility tests for bacteria that grow aerobically—fifth edition. Approved standard M7-A5. NCCLS, Wayne, Pa.)
Briefly, test compounds are prepared in 100 μl of 1.6% DMSO solution in multiwell plates. Several bacterial colonies from a freshly streaked plate are transferred to an appropriate rich broth, such as Mueller Hinton. The cell suspension is adjusted to an optical density of 0.09 and further diluted 1:100 with warm 2× broth. This cell suspension is dispensed into the wells containing compound solution so that the final volume is 200 μl. The plates are incubated overnight (16-20 hours) at 37° C. and turbidity is scored by eye and quantified spectrophotometrically. The MIC is defined as the lowest concentration inhibiting visible growth.
Some of the Examples were also tested for activity against other bacterial species. […] Activities were again scored as ‘A’ if the MIC was ≦8 micrograms/ml, ‘B’ if the MIC was 16 to 64 micrograms/ml and ‘C’ if the MIC was greater than 64 micrograms/ml.

[2] = tested on: Staphylococcus aureus ATCC29213; assay: Minimum Inhibitory Concentration (MIC) testing, broth microdilution, Staphylococcus aureus; settings: Staphylococcus aureus ATCC29213; read-out: Staphylococcus aureus MICs Activity
Summary of the method: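 Broth microdilution per NCCLS M7-A5 in Mueller Hinton broth, with compound in 1.6% DMSO and inoculum at OD 0.09 diluted 1:100. Plates incubated 16–20 h at 37°C. MIC is the lowest concentration with no visible growth; scored A ≤8, B 16–64, C >64 μg/ml.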

Bacillus subtilis 168CA = assay: Minimum Inhibitory Concentration (MIC) testing, broth microdilution, Bacillus subtilis; settings: Bacillus subtilis 168CA; read-out: Bacillus subtilis MICs Activity
Summary of the method: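 Broth microdilution followed NCCLS M7-A5, in rich broth such as Mueller Hinton, inoculum at OD 0.09 diluted 1:100, compounds in 1.6% DMSO before inoculum. After 16–20 h at 37 °C, MIC was the lowest concentration without visible growth. Score A: ≦8 μg/ml, B: 16–64 μg/ml, C: >64 μg/ml.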

[3] = Staphylococcus epidermidis, ATCC12228, read-out: MIC Activity Staphylococcus epidermidis ATCC 12228
[4] = Staphylococcus saprophyticus, ATCC15305, read-out: MIC Activity Staphylococcus saprophyticus ATCC 15305
[5] = Staphylococcus haemolyticus, ATCC29970, read-out: MIC Activity Staphylococcus haemolyticus ATCC 29970

With C#CCCCCCCCCCOc1cccc(C(N)=O)c1F [Example 177, 2-Fluoro-3-(10-undecynyloxy)benzenecarboxamide] the MIC [1, 3] was < 8 µg/mL, the MIC [2] was < 8 µg/mL and the MIC (Bacillus subtilis 168CA) was < 8 µg/mL.

For NC(=O)c1c(F)ccc(OCc2ccc3ccc(Cl)cc3n2)c1F [Example 111, 3-(7-Chloro-quinolin-2-ylmethoxy)-2,6-difluoro-benzamide], the MIC [1, 4] was < 8 µg/mL, the MIC [2] was < 8 µg/mL and the MIC (Bacillus subtilis 168CA) was < 8 µg/mL.

For C#CCCCCCCCCCOc1cccc(C(N)=O)c1 [Example 46, 3-(10-Undecynyloxy)benzenecarboxamide], the MIC [1, 3] was < 8 µg/mL, the MIC [2] was < 8 µg/mL and the MIC (Bacillus subtilis 168CA) was < 8 µg/mL.

For NC(=O)c1c(F)ccc(OCc2nc3cc(-c4ccccc4)ccc3s2)c1F [Example 114, 2,6-Difluoro-3-(5-phenyl-benzothiazol-2-ylmethoxy)-benzamide], the MIC ([1]; Bacillus cereus, ATCC14579, read-out: MIC Activity Bacillus cereus ATCC 14579) was < 8 µg/mL, the MIC [1, 4] was < 8 µg/mL and the MIC [2] was < 8 µg/mL. For the same compound, the MIC (Bacillus subtilis 168CA) was < 8 µg/mL.

COc1ccc(-c2nc(COc3ccc(F)c(C(N)=O)c3F)sc2-c2ccc(OC)cc2)cc1 [Example 282, 2,6-Difluoro-3-[5-(4-methoxy-phenyl)-4-(4-methoxy-phenyl)-thiazol-2-ylmethoxy]-benzamide] was tested, and the MIC [1, 3] was < 8 µg/mL, the MIC [2] was < 8 µg/mL and the MIC (Bacillus subtilis 168CA) was < 8 µg/mL.

With CCCCCC/C=C/COc1ccc(F)c(C(N)=O)c1F [Example 84, 2,6-Difluoro-3-[(E)-2-nonenyloxy]benzenecarboxamide] the MIC [1, 3] was < 8 µg/mL, the MIC [2] was < 8 µg/mL and the MIC (Bacillus subtilis 168CA) was < 8 µg/mL.

For NC(=O)c1c(F)ccc(OCc2nc3cc(Cl)cnc3s2)c1F [Example 139, 3-(6-Chloro-thiazolo[5,4-b]pyridin-2-ylmethoxy)-2,6-difluoro-benzamide], the MIC [1, 3] was < 8 µg/mL, the MIC [1, 5] was < 8 µg/mL and the MIC [2] was < 8 µg/mL. For the same compound, the MIC (Bacillus subtilis 168CA) was < 8 µg/mL.

In the case of CCCC/C=C\CCCCOc1ccc(F)c(C(N)=O)c1F [Example 87, 2,6-Difluoro-3-[(Z)-5-decenyloxy]benzenecarboxamide], the MIC [1, 3] is reported as < 8 µg/mL, the MIC [2] is reported as < 8 µg/mL and the MIC (Bacillus subtilis 168CA) is reported as < 8 µg/mL.

With COc1ccc(-c2nc(COc3ccc(F)c(C(N)=O)c3F)sc2-c2ccccc2)cc1 [Example 287, 2,6-Difluoro-3-[4-(4-methoxy-phenyl)-5-phenyl-thiazol-2-ylmethoxy]-benzamide] the MIC [1, 5] was < 8 µg/mL, the MIC [2] was < 8 µg/mL and the MIC (Bacillus subtilis 168CA) was < 8 µg/mL.

For CCCc1ccc2sc(COc3ccc(F)c(C(N)=O)c3F)nc2c1 [Example 135, 2,6-Difluoro-3-(5-propyl-benzothiazol-2-ylmethoxy)-benzamide], the MIC [1, 5] was < 8 µg/mL, the MIC [2] was < 8 µg/mL and the MIC (Bacillus subtilis 168CA) was < 8 µg/mL.

NC(=O)c1cccc(OCc2nc(-c3ccc(Cl)cc3)cs2)c1F [Example 271, 3-[4-(4-Chloro-phenyl)-thiazol-2-ylmethoxy]-2-fluoro-benzamide] was tested, and the MIC [1, 3] was < 8 µg/mL, the MIC [2] was < 8 µg/mL and the MIC (Bacillus subtilis 168CA) was < 8 µg/mL.

In the case of NC(=O)c1c(F)ccc(OCc2nc3ccccc3s2)c1F [Example 215, 3-(1,3-Benzothiazol-2-ylmethoxy)-2,6-difluorobenzenecarboxamide], the MIC [1, 3] is reported as < 8 µg/mL, the MIC [2] is reported as < 8 µg/mL and the MIC (Bacillus subtilis 168CA) is reported as < 8 µg/mL.

For CCCCCCCCCOc1cccc(C(N)=O)c1F [Example 175, 2-Fluoro-3-(nonyloxy)benzenecarboxamide], the MIC [1, 3] was < 8 µg/mL, the MIC [2] was < 8 µg/mL and the MIC (Bacillus subtilis 168CA) was < 8 µg/mL.

With NC(=O)c1c(F)ccc(OCc2nc(Cc3ccccc3)no2)c1F [Example 266, 3-[(3-Benzyl-1,2,4-oxadiazol-5-yl)methoxy]-2,6-difluorobenzenecarboxamide] the MIC [2] was 16 to 64 µg/mL (≈ 46.3 to 185 µM) and the MIC (Bacillus subtilis 168CA) was 16 to 64 µg/mL (≈ 46.3 to 185 µM).

With C#CCCCCCCCCCOc1ccc(F)c(C(N)=O)c1F [Example 88, 2,6-Difluoro-3-(10-undecynyloxy)benzenecarboxamide] the MIC [1, 3] was < 8 µg/mL, the MIC [2] was < 8 µg/mL and the MIC (Bacillus subtilis 168CA) was < 8 µg/mL.

In the case of COc1ccc(-c2coc(COc3ccc(F)c(C(N)=O)c3F)n2)cc1 [Example 311, 2,6-Difluoro-3-[4-(4-methoxy-phenyl)-oxazol-2-ylmethoxy]-benzamide], the MIC [1, 3] is reported as < 8 µg/mL, the MIC [2] is reported as < 8 µg/mL and the MIC (Bacillus subtilis 168CA) is reported as < 8 µg/mL.

NC(=O)c1c(F)ccc(OCc2nc(-c3ccc(F)cc3)no2)c1F [Example 245, 2,6-Difluoro-3-[3-(4-fluorophenyl)-1,2,4-oxadiazol-5-yl]methoxybenzenecarboxamide] was tested, and the MIC [2] was < 8 µg/mL and the MIC (Bacillus subtilis 168CA) was < 8 µg/mL.

In the case of CC(=O)OCCCCCOc1cccc(C(N)=O)c1 [Example 18, 5-[3-(Aminocarbonyl)phenoxy]pentyl acetate], the MIC [2] is reported as > 64 µg/mL and the MIC (Bacillus subtilis 168CA) is reported as > 64 µg/mL.

NC(=O)c1c(F)ccc(OCc2nc(-c3ccc(OC(F)(F)F)cc3)cs2)c1F [Example 320, 2,6-Difluoro-3-[4-(4-trifluoromethoxy-phenyl)-thiazol-2-ylmethoxy]-benzamide] was tested, and the MIC [2] was < 8 µg/mL and the MIC (Bacillus subtilis 168CA) was < 8 µg/mL.

For CC/C=C\CCCCOc1ccc(F)c(C(N)=O)c1 [Example 73, 2-Fluoro-5-[(Z)-5-octenyloxy]benzenecarboxamide], the MIC [2] was < 8 µg/mL and the MIC (Bacillus subtilis 168CA) was < 8 µg/mL.

In the case of NC(=O)c1c(F)ccc(OCc2nc(-c3nccs3)no2)c1F [Example 326, 2,6-Difluoro-3-(3-thiazol-2-yl-[1,2,4]oxadiazol-5-ylmethoxy)-benzamide], the MIC [2] is reported as 16 to 64 µg/mL (≈ 47.3 to 189 µM) and the MIC (Bacillus subtilis 168CA) is reported as 16 to 64 µg/mL (≈ 47.3 to 189 µM).

With CCCCCCCCCOc1ccc(F)c(C(N)=O)c1F [Example 82, 2,6-Difluoro-3-(nonyloxy)benzenecarboxamide] the MIC [2] was < 8 µg/mL and the MIC (Bacillus subtilis 168CA) was < 8 µg/mL.

With Cc1ccc2nc(COc3ccc(F)c(C(N)=O)c3F)oc2c1 [Example 211, 2,6-Difluoro-3-[(6-methyl-1,3-benzoxazol-2-yl)methoxy]benzenecarboxamide] the MIC [2] was 16 to 64 µg/mL (≈ 50.3 to 201 µM) and the MIC (Bacillus subtilis 168CA) was < 8 µg/mL.

COC(=O)c1cccc(COc2ccc(F)c(C(N)=O)c2F)c1 [Example 108, 3-(3-Carbamoyl-2,4-difluoro-phenoxymethyl)-benzoic acid methyl ester] gave an MIC [2] of 16 to 64 µg/mL (≈ 49.8 to 199 µM) and an MIC (Bacillus subtilis 168CA) of 16 to 64 µg/mL (≈ 49.8 to 199 µM).

COc1ccc(-c2csc(COc3ccc(F)c(C(N)=O)c3F)n2)cc1 [Example 105, 3-[4-(4-Methoxyphenyl)thiazol-2-ylmethoxy]-2,6-difluoro-benzamide] was tested, and the MIC [2] was < 8 µg/mL and the MIC (Bacillus subtilis 168CA) was < 8 µg/mL.

NC(=O)c1c(F)ccc(OCc2nc(-c3ccc(Cl)cc3)co2)c1F [Example 309, 3-[4-(4-Chloro-phenyl)-oxazol-2-ylmethoxy]-2,6-difluoro-benzamide] was tested, and the MIC [2] was < 8 µg/mL and the MIC (Bacillus subtilis 168CA) was < 8 µg/mL.

With C=CCc1sc(COc2ccc(F)c(C(N)=O)c2F)nc1-c1ccc(OC)cc1 [Example 120, 3-[5-Allyl-4-(4-methoxy-phenyl)-thiazol-2-ylmethoxy]-2,6-difluoro-benzamide] the MIC [2] was < 8 µg/mL and the MIC (Bacillus subtilis 168CA) was < 8 µg/mL.

For COc1ccc(Br)c(-c2csc(COc3ccc(F)c(C(N)=O)c3F)n2)c1 [Example 100, 3-[4-(2-Bromo-5-methoxy-phenyl)-thiazol-2-ylmethoxy]-2,6-difluoro-benzamide], the MIC [2] was < 8 µg/mL and the MIC (Bacillus subtilis 168CA) was < 8 µg/mL.

NC(=O)c1c(F)ccc(OCc2nc(-c3ccc(Cl)cc3)c(Br)s2)c1F [Example 159, 3-[5-Bromo-4-(4-chloro-phenyl)-thiazol-2-ylmethoxy]-2,6-difluoro-benzamide] was tested, and the MIC [2] was < 8 µg/mL and the MIC (Bacillus subtilis 168CA) was < 8 µg/mL.

In the case of C/C=C/COc1cccc(C(N)=O)c1 [Example 30, 3-[2-Butenyloxy]benzenecarboxamide], the MIC [2] is reported as > 64 µg/mL and the MIC (Bacillus subtilis 168CA) is reported as > 64 µg/mL.
